The results in this text go back to ChEMBL document CHEMBL5465560, “Selectivity Literature for EUbOPEN Chemogenomic Library” (2024).

Assay [1] addresses RAC-gamma serine/threonine-protein kinase (Homo sapiens, UniProt Q9Y243). Nature of the assay: Selectivity interaction (Millipore kinase profiler) EUB0000124b AKT3. The settings on record: at 10 µM.
Assay [2] concerns the target T1, Histone-arginine methyltransferase CARM1 (Homo sapiens) (UniProt Q86X55).
T1 sequence (whole entry): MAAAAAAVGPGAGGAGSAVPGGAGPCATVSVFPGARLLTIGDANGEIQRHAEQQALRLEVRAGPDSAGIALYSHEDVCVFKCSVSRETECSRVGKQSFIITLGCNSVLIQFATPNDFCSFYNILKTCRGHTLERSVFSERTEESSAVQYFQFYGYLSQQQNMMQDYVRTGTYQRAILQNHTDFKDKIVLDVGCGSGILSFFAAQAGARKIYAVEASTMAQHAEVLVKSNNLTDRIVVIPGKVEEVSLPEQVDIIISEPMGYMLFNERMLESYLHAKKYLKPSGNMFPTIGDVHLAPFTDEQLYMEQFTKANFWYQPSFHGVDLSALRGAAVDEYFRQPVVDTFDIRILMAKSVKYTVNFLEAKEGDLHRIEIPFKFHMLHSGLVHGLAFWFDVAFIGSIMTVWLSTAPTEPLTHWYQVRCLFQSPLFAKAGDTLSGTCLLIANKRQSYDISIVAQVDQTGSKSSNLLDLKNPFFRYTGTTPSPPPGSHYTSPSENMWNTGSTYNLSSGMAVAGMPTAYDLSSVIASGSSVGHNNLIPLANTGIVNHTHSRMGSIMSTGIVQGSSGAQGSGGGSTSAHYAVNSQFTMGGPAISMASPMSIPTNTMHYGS
Put plainly: Selectivity interaction (Methyltransferase screen (Scintillation proximity assays)) EUB0000255b CARM1.

Assay [3] addresses T2, Homeodomain-interacting protein kinase 4 (Homo sapiens) (UniProt Q8NE63).
T2 sequence (whole entry): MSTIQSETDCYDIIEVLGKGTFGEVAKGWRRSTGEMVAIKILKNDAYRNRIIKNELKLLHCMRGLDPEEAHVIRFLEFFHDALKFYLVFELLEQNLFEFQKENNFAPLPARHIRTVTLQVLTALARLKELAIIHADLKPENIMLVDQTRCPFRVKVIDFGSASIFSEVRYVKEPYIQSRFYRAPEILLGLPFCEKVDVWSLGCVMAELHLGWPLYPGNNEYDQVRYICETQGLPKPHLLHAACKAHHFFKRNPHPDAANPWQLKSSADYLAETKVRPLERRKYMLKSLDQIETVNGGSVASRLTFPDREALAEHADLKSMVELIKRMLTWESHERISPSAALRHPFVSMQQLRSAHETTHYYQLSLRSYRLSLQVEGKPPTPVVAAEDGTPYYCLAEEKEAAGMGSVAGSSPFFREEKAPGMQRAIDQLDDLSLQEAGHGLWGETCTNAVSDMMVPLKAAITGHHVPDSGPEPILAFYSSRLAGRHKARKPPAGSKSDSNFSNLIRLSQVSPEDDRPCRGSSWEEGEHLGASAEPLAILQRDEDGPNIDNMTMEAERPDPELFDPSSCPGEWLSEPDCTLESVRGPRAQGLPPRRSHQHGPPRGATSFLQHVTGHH
Put plainly: Selectivity interaction (KinomeScan (DiscoverX)) EUB0000045b HIPK4.

Assay [4] has as its target Homeodomain-interacting protein kinase 3 (Homo sapiens, UniProt Q9H422). Put plainly: Selectivity interaction (KinomeScan (DiscoverX)) EUB0000666a HIPK3. The following applies: at 10 µM.
For assay [5], the target named is Cyclin-dependent kinase 1/cyclin B (Homo sapiens) (UniProt P06493+P14635+Q8WWL7+O95067). Put plainly: Selectivity interaction (Kinase panel (Z-LYTE Assay)) EUB0001632a CDK1. The assay is classed as protein-complex assay. The settings on record: at 10 µM.
The target of assay [6] is Ribosomal protein S6 kinase alpha-3 (Homo sapiens, UniProt P51812). Put plainly: Selectivity interaction (SelectScreen profiling (Invitrogen)) EUB0000607a RPS6KA3. The settings on record: at 2 µM.
Sequence of Ribosomal protein S6 kinase alpha-3 (P51812 whole entry): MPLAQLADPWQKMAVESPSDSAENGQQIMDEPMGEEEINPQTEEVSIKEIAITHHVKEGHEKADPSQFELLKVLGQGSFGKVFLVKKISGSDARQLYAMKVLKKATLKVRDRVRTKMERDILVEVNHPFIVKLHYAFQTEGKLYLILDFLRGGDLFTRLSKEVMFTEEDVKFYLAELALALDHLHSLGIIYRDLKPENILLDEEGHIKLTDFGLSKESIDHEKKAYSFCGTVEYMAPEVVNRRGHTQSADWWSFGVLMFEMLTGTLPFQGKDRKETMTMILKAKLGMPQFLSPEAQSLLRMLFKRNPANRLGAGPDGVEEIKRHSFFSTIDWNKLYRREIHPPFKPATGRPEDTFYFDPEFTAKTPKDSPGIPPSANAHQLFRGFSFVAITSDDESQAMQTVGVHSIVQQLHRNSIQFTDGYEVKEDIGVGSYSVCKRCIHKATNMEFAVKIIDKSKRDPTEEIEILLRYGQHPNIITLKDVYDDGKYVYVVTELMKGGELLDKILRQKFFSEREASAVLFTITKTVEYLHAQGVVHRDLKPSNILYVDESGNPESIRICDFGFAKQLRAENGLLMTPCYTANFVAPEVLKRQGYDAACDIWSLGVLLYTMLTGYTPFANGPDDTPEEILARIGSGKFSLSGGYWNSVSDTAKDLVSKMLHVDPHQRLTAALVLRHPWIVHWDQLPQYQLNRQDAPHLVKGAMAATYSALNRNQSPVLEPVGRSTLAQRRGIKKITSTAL
The target of assay [7] is T3, Dual specificity mitogen-activated protein kinase kinase 6 (Homo sapiens) (UniProt P52564).
T3 sequence (whole entry): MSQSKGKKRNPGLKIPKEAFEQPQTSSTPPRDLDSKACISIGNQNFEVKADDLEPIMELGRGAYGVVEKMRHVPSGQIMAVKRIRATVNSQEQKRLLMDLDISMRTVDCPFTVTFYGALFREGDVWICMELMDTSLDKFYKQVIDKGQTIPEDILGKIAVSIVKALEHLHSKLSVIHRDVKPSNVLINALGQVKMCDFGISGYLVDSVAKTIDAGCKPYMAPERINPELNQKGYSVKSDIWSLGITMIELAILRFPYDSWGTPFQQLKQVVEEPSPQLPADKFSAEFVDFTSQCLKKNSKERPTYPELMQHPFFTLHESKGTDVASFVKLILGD
Put plainly: Selectivity interaction (Kinase panel (Invitrogen)) EUB0000639a MAP2K6. The settings on record: at 200 nM.

Sequence of Homeodomain-interacting protein kinase 3 (Q9H422 whole entry, looked up): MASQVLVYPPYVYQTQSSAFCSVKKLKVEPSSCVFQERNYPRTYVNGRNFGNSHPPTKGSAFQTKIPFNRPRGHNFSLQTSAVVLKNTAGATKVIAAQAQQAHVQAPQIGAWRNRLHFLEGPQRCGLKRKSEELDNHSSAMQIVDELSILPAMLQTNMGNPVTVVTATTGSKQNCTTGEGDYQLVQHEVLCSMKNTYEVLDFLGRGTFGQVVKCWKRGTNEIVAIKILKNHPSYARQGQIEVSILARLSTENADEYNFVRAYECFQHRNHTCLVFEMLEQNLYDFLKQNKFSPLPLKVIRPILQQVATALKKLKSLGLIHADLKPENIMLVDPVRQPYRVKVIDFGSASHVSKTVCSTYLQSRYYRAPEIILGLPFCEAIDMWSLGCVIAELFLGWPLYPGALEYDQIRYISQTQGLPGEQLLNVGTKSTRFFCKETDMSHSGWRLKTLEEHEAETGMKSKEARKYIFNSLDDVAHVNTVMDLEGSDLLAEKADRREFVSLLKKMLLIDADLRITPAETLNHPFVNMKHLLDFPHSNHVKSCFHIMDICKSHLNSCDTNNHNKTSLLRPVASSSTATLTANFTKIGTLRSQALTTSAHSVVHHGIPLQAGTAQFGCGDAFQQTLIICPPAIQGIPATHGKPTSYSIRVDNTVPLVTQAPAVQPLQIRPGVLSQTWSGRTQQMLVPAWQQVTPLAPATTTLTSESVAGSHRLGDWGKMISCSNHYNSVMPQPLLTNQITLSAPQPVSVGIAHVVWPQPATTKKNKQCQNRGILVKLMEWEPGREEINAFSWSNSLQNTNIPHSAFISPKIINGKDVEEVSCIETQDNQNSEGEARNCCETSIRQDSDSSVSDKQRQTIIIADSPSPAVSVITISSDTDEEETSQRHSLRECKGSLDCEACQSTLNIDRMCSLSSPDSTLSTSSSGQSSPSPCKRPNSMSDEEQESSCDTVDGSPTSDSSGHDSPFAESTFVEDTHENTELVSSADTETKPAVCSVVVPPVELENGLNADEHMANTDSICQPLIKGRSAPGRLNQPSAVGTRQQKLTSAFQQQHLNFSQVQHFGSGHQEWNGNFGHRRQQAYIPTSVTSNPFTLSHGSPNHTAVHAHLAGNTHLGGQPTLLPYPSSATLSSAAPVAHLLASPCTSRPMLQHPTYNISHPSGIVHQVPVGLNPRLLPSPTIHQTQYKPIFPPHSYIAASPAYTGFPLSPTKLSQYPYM
Sequence of RAC-gamma serine/threonine-protein kinase (Q9Y243 whole entry): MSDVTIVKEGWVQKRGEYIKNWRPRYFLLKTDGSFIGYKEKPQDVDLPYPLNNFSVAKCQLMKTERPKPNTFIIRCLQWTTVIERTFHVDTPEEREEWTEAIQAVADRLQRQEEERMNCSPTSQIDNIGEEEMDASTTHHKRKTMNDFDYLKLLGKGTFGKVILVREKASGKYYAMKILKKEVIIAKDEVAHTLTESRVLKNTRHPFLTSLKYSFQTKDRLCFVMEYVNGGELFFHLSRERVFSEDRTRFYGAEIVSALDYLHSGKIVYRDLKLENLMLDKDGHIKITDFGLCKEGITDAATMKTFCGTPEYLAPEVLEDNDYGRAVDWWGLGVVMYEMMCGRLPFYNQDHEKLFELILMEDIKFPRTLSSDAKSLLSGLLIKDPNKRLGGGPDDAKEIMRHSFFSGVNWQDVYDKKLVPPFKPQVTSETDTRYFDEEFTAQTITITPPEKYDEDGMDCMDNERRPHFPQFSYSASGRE

In the case of `CC(=O)Nc1cccc(-n2c(=O)n(C3CC3)c(=O)c3c(Nc4ccc(I)cc4F)n(C)c(=O)c(C)c32)c1`, the % of control in assay [1] is 109%.

In the case of `COCCN1CCC(c2cc(CN(C)C(=O)c3cccc(Oc4ccccc4)c3)ccn2)CC1`, the % activity is less than 1% in assay [2] (at 1 µM) and 23% in assay [2] (at 10 µM). Take `C=CC(=O)Nc1cc(-n2c(=O)ccc3cnc4ccc(-c5ccc(NS(C)(=O)=O)cc5)cc4c32)ccc1C`: the % of control in assay [3] (at 1 µM) amounted to 100%; in assay [3] (at 10 µM), 71%. `O=C(NOC[C@H](O)CO)c1ccc(F)c(F)c1Nc1ccc(I)cc1F` had a % of control in assay [4] of 49%. For `Cn1cc(-n2cnc3c(NCc4nc5cc(Cl)c(Cl)cc5[nH]4)nc(N4CCOCC4)nc32)cn1`, in assay [5], the % of control turned out to be 3.94%. For the compound `CNC(=O)Nc1ccc(-c2nc(N3CC4CCC(C3)O4)c3cnn(C4CCC5(CC4)OCCO5)c3n2)cc1`, the % of inhibition in assay [6] is -2%. Regarding `CC[C@@H]1[C@H](F)C(=O)N[C@@H]1COc1nccc2cc(C(N)=O)c(OC)cc12` [ZIMLOVISERTIB], the % of inhibition in assay [7] was 1.6%.
